Measured values as given in ChEMBL document CHEMBL1201862, “PubChem BioAssay data set” (2004).
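1) Cells in 96-well plates. 2) Compound, 48 h, 5 concentrations. 3) Linear interpolation between surrounding doses. 4) Unreached endpoint = highest concentration. Abbreviation: GI50, concentration required for 50% inhibition of growth.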 Calls of active or inactive are those of the source. Cut-off read from the data, not from the text of the source: active = GI50 up to about 1.1 µM and inactive = higher.

Experiments:
Experiment in all cases: inhibition of tumour cell growth, NCI panel, 48 h
[1] = test system: 786-0
[2] = test system: A549
[3] = test system: DU-145
[4] = test system: HCT-116
[5] = test system: HCT-15
[6] = test system: HT-29
[7] = test system: LOX IMVI
[8] = test system: MDA-MB-435
[9] = test system: MOLT-4
[10] = test system: Malme-3M
[11] = test system: NCI-H226
[12] = test system: RPMI-8226
[13] = test system: SF-295
[14] = test system: SR
[15] = test system: TK-10
[16] = test system: U-251
[17] = test system: UACC-257
[18] = test system: UO-31
[19] = test system: UACC-62
[20] = test system: SK-MEL-2

Row | SMILES | GI50 [1] | GI50 [2] | GI50 [3] | GI50 [4] | GI50 [5] [µM] | GI50 [6] | GI50 [7] | GI50 [8] | GI50 [9] | GI50 [10] | GI50 [11] | GI50 [12] | GI50 [13] | GI50 [14] | GI50 [15] | GI50 [16] | GI50 [17] | GI50 [18] | GI50 [19] | GI50 [20]
1 | Nc1nc(NNc2ccc(Cl)c(Cl)c2)cc(=O)[nH]1 | 21.6 µM (inactive) | 45.7 µM (inactive) | 35.8 µM (inactive) | 52.4 µM (inactive) | 19.7 | 34.4 µM (inactive) | 17.3 µM (inactive) | 25.4 µM (inactive) | 19.4 µM (inactive) | 46.9 µM (inactive) | 78.9 µM (inactive) | 32.2 µM (inactive) | 54.1 µM (inactive) | 31.7 µM (inactive) | > 100 µM (inactive) | 24.2 µM (inactive) | 43.2 µM (inactive) | 29.9 µM (inactive) |  | 
2 | COC(=O)c1ccc(C)cc1C1CN=NC12Cc1cc(C)c(C)cc1C2=O (configuration not stated) | 54.7 µM (inactive) | 34.4 µM (inactive) | 59.2 µM (inactive) | 24.2 µM (inactive) | 48.1 | 25.3 µM (inactive) | 25.9 µM (inactive) | 24.9 µM (inactive) | 26.7 µM (inactive) | 30.5 µM (inactive) | 45.1 µM (inactive) | 27.9 µM (inactive) | 47.3 µM (inactive) | 48.5 µM (inactive) | > 100 µM (inactive) | 46.7 µM (inactive) | 53.2 µM (inactive) | 46.1 µM (inactive) |  | 
3 | O=C(C=P(c1ccccc1)(c1ccccc1)c1ccccc1)c1cccc(-c2cccc([N+](=O)[O-])c2)c1 | 4.24 µM (inactive) | 3.62 µM (inactive) | 6.78 µM (inactive) | 3.55 µM (inactive) | 3.16 | 1.8 µM (inactive) | 2.56 µM (inactive) | 2.68 µM (inactive) | 1.68 µM (inactive) | 2.86 µM (inactive) |  | 1.98 µM (inactive) | 3.18 µM (inactive) | 2.58 µM (inactive) | 3.18 µM (inactive) | 3.89 µM (inactive) |  | 3.11 µM (inactive) | 1.72 µM (inactive) | 
4 | Clc1ccc(/N=c2\oc3ccccc3cc2-c2nc3ccccc3[nH]2)c(Cl)c1 |  |  | > 100 µM (inactive) | > 100 µM (inactive) | > 100 | > 100 µM (inactive) | > 100 µM (inactive) | > 100 µM (inactive) | > 100 µM (inactive) | > 100 µM (inactive) |  | > 100 µM (inactive) | > 100 µM (inactive) | > 100 µM (inactive) | 23.8 µM (inactive) |  | > 100 µM (inactive) | > 100 µM (inactive) | 24.6 µM (inactive) | 
5 | Cc1c(/C=N/NC(=S)Nc2ccccc2)c(=O)n(-c2ccccc2)n1C | > 100 µM (inactive) |  | > 100 µM (inactive) | > 100 µM (inactive) | 47.5 | > 100 µM (inactive) | > 100 µM (inactive) | > 100 µM (inactive) | > 100 µM (inactive) |  | > 100 µM (inactive) | > 100 µM (inactive) | > 100 µM (inactive) | > 100 µM (inactive) | > 100 µM (inactive) | > 100 µM (inactive) | > 100 µM (inactive) | 57.5 µM (inactive) | > 100 µM (inactive) | > 100 µM (inactive)
6 | COC(=O)c1cc2c(c(C(=O)OC)c1)CCC2 | > 100 µM (inactive) | > 100 µM (inactive) | > 100 µM (inactive) | 76.6 µM (inactive) | 63.1 | 40.6 µM (inactive) | 82.4 µM (inactive) | > 100 µM (inactive) | 37.2 µM (inactive) | > 100 µM (inactive) |  | > 100 µM (inactive) | > 100 µM (inactive) | 30.3 µM (inactive) | > 100 µM (inactive) | > 100 µM (inactive) | > 100 µM (inactive) | 85.7 µM (inactive) |  | > 100 µM (inactive)
7 | CCOc1ccc(NCC2CC/C(=C\c3ccc(O)cc3)C2=O)cc1 (configuration not stated) | 6.65 µM (inactive) | 21.2 µM (inactive) | 25.7 µM (inactive) | 9.64 µM (inactive) | 6.9 | 15.6 µM (inactive) | 12.2 µM (inactive) | 18.4 µM (inactive) | 4.17 µM (inactive) | 14.9 µM (inactive) | 38.2 µM (inactive) | 4.02 µM (inactive) | 24.5 µM (inactive) | 2.19 µM (inactive) | 12.7 µM (inactive) | 16.7 µM (inactive) | 16.9 µM (inactive) | 19.4 µM (inactive) | 19.7 µM (inactive) | 
8 | CCOC(=O)C(Cc1cn(C(C)=O)c2ccccc12)P(=O)(OCC)OCC (configuration not stated) |  | > 100 µM (inactive) | > 100 µM (inactive) | > 100 µM (inactive) | > 100 | > 100 µM (inactive) | > 100 µM (inactive) | > 10 µM (inactive) | > 100 µM (inactive) |  | > 100 µM (inactive) | > 100 µM (inactive) | > 100 µM (inactive) | > 100 µM (inactive) | > 100 µM (inactive) | > 100 µM (inactive) | > 100 µM (inactive) | > 100 µM (inactive) |  | > 100 µM (inactive)
9 | O=Cc1cc(O)c(O)c(/C=N/n2c3ccccc3c3ccccc32)c1 | 4.41 µM (inactive) | 12.8 µM (inactive) | 11.4 µM (inactive) | 3.37 µM (inactive) | 2.18 | 18.7 µM (inactive) | 8.49 µM (inactive) | 11.3 µM (inactive) | 2.54 µM (inactive) | 12.4 µM (inactive) | 12.6 µM (inactive) | 2.05 µM (inactive) | 8.69 µM (inactive) | 2.84 µM (inactive) | 13.4 µM (inactive) | 6.14 µM (inactive) | 11.7 µM (inactive) | 5.58 µM (inactive) | 7.83 µM (inactive) | 
10 | C=C1C(=O)C2(C)OC2(C)C1C(=O)O (configuration not stated) | > 100 µM (inactive) | > 100 µM (inactive) | > 100 µM (inactive) | > 100 µM (inactive) | > 100 | > 100 µM (inactive) | > 100 µM (inactive) | > 100 µM (inactive) |  |  | > 100 µM (inactive) | > 100 µM (inactive) | > 100 µM (inactive) | > 100 µM (inactive) | > 100 µM (inactive) | > 100 µM (inactive) | > 100 µM (inactive) | > 100 µM (inactive) | > 100 µM (inactive) | > 100 µM (inactive)
11 | O=c1[nH]c(=O)n(COCc2ccccc2)cc1Nc1ccc(Br)cc1 | > 100 µM (inactive) | > 100 µM (inactive) | > 100 µM (inactive) | > 100 µM (inactive) | > 100 | > 100 µM (inactive) | > 100 µM (inactive) | > 100 µM (inactive) | > 100 µM (inactive) |  | > 100 µM (inactive) | > 100 µM (inactive) | 44.5 µM (inactive) | > 100 µM (inactive) |  | > 100 µM (inactive) | > 100 µM (inactive) | > 100 µM (inactive) | > 100 µM (inactive) | 
12 | Nc1c(C(=O)c2ccccc2)[nH]c(NCc2ccccc2)c1C(=S)Nc1ccccc1 | > 100 µM (inactive) | > 100 µM (inactive) | > 100 µM (inactive) | > 100 µM (inactive) | > 100 | > 100 µM (inactive) | > 100 µM (inactive) | > 100 µM (inactive) | > 100 µM (inactive) | > 100 µM (inactive) | > 100 µM (inactive) |  | > 100 µM (inactive) | > 100 µM (inactive) | > 100 µM (inactive) | > 100 µM (inactive) | > 100 µM (inactive) | > 100 µM (inactive) | > 100 µM (inactive) | > 100 µM (inactive)
13 | C=C(CCOC)CCC1CCCCC(=C)[C@H]1OC(C)=O (some centres not stated) | > 100 µM (inactive) | > 100 µM (inactive) | > 100 µM (inactive) | > 100 µM (inactive) | > 100 | > 100 µM (inactive) | > 100 µM (inactive) | > 100 µM (inactive) | 59.7 µM (inactive) |  | 97.3 µM (inactive) | 51.1 µM (inactive) | > 100 µM (inactive) | 52.5 µM (inactive) | > 100 µM (inactive) | > 100 µM (inactive) | > 100 µM (inactive) | > 100 µM (inactive) | > 100 µM (inactive) | > 100 µM (inactive)
14 | O=Cc1cc([N+](=O)[O-])no1 |  |  | 80.5 µM (inactive) | 11 µM (inactive) | 36.8 | 23 µM (inactive) | 7.13 µM (inactive) | 15.2 µM (inactive) | 18.7 µM (inactive) | > 10 µM (inactive) | 78.9 µM (inactive) | 16.9 µM (inactive) | 32.5 µM (inactive) | 31.4 µM (inactive) | > 100 µM (inactive) | 53.3 µM (inactive) | 28.5 µM (inactive) | > 100 µM (inactive) | 19.7 µM (inactive) | 24.4 µM (inactive)
15 | C(CCc1nnc2c(n1)CCCC2)Cc1nnc2c(n1)CCCC2 | > 100 µM (inactive) | > 100 µM (inactive) | > 100 µM (inactive) | > 100 µM (inactive) | > 100 | > 100 µM (inactive) | > 100 µM (inactive) | 88.7 µM (inactive) | > 100 µM (inactive) | > 100 µM (inactive) | > 100 µM (inactive) | > 100 µM (inactive) | > 100 µM (inactive) | 88.7 µM (inactive) | > 100 µM (inactive) | > 100 µM (inactive) |  | > 100 µM (inactive) | > 100 µM (inactive) | > 100 µM (inactive)
16 | Cc1cc(-c2nc3ccccc3s2)ccc1NC(=O)[C@H](C)N | 11.1 µM (inactive) | 13.7 µM (inactive) | 15.3 µM (inactive) | 10.9 µM (inactive) | 14.1 | 14.4 µM (inactive) | 5.06 µM (inactive) | 7.18 µM (inactive) | 18.2 µM (inactive) | 24 µM (inactive) | 0.942 µM (active) |  | 15.3 µM (inactive) | 5.2 µM (inactive) |  | 15 µM (inactive) | 16.9 µM (inactive) | 5.78 µM (inactive) | 14.8 µM (inactive) | 17.5 µM (inactive)
